# Data reported in patent US10377774B2 (JINAN UNIVERSITY, priority 2013, dated 2019).
# Marks after values point to notes of the source that are not given here.
# How the values were obtained:
# [1] = system: human non-small-cell lung cancer cell line A549; test: MTT cell growth inhibition, A549; assay type: cell-based; conditions: A549, MTT assay, 72 h; read-out: IC50, growth of tumor cell line
# From the text: (§3) Experimental method: Cell lines (human non-small-cell lung cancer cell line A549, human colon cancer cell line LOVO, human nasopharyngeal carcinoma cell line CNE-2, human liver cancer cell line HepG2, human cervical carcinoma cell line Hela, human breast cancer cell lines MCF-7 and MDA-MB-231, human gastric carcinoma cell line NCI-N87, human prostatic cancer cell lines PC-3 and DU145, human leukemia cell line K562, human melanoma cell line A375, human neuroblastoma cell line SH-SY5H, human promyelocytic leukemia cell line HL-60, 5-FU-resistant human hepatocellular carcinoma cell line BEL-7402/5-Fu, doxorubicin-resistant hepatocellular carcinoma cell line HepG2/ADM, doxorubicin-resistant human breast cancer cell lines MCF-7/ADR) at logarithmic phase were resuspended in RPMI 1640 medium (containing 10% fetal bovine serum, 100 U/mL penicillin-streptomycin). Then, 100 μL of cells (cell concentration was 5×10^5/mL) were seeded into 96 wells plate. After 24 h incubation at 37° C. with 5% CO2, tested compounds were added (the control group without compound) for an additional 72 h incubation. After that, 30 μL of MTT [3-(4,5-Dimethylthiazol-2-yl)-2,5-diphenyltetrazolium bromide] solution (5 mg/mL) was added into each well and incubated for another 4 h at 37° C. and then the formazan crystals were solubilized with 100 μL DMSO. Finally, absorbance of each well was determined at 570 nm by a microplate reader (Thermo).
# (§4) The concentration required to inhibit cell growth by 50% (IC50) was calculated from survival curves.
# [2] = system: human colon cancer cell line LOVO; test: MTT cell growth inhibition, LOVO; assay type: cell-based; conditions: LOVO (FAPα positive), MTT assay, 72 h; read-out: IC50, growth of tumor cell line
# From the text: as §3, §4
# [3] = system: human nasopharyngeal carcinoma cell line CNE-2; test: MTT cell growth inhibition, CNE-2; assay type: cell-based; conditions: CNE-2, MTT assay, 72 h; read-out: IC50, growth of tumor cell line
# [4] = system: human liver cancer cell line HepG2; test: MTT cell growth inhibition, HepG2; assay type: cell-based; conditions: HepG2, MTT assay, 72 h; read-out: IC50, growth of tumor cell line
# From the text: as §3, §4
# [5] = system: human cervical carcinoma cell line Hela; test: MTT cell growth inhibition, Hela; assay type: cell-based; conditions: MTT assay, 72 h, read-out: IC50, growth of tumor cell line
# From the text: as §3, §4
# [6] = system: human breast cancer cell line MCF-7; test: MTT cell growth inhibition, MCF-7; assay type: cell-based; conditions: MCF-7, MTT assay, 72 h; read-out: IC50, growth of tumor cell line
# [7] = system: human breast cancer cell line MDA-MB-231; test: MTT cell growth inhibition, MDA-MB-231; assay type: cell-based; conditions: MDA-MB-231, MTT assay, 72 h; read-out: IC50, growth of tumor cell line
# [8] = system: human gastric carcinoma cell line NCI-N87; test: MTT cell growth inhibition, NCI-N87; assay type: cell-based; conditions: NCI-N87, MTT assay, 72 h; read-out: IC50, growth of tumor cell line
# [9] = system: human prostatic cancer cell line PC-3; test: MTT cell growth inhibition, PC-3; assay type: cell-based; conditions: PC-3, MTT assay, 72 h; read-out: IC50, growth of tumor cell line
# [10] = system: human prostatic cancer cell line DU145; test: MTT cell growth inhibition, DU-145; assay type: cell-based; conditions: DU-145, MTT assay, 72 h; read-out: IC50, growth of tumor cell line
# From the text: as §3, §4
# [11] = system: human leukemia cell line K562; test: MTT cell growth inhibition, K562; assay type: cell-based; conditions: K562, MTT assay, 72 h; read-out: IC50, growth of tumor cell line
# From the text: as §3, §4
# [12] = system: human melanoma cell line A375; test: MTT cell growth inhibition, A375; assay type: cell-based; conditions: A375, MTT assay, 72 h; read-out: IC50, growth of tumor cell line
# [13] = system: human neuroblastoma cell line SH-SY5H; test: MTT cell growth inhibition, SH-SY5H; assay type: cell-based; conditions: MTT assay, 72 h, read-out: IC50, growth of tumor cell line
# From the text: as §3, §4
# [14] = system: human promyelocytic leukemia cell line HL-60; test: MTT cell growth inhibition, HL-60; assay type: cell-based; conditions: HL-60, MTT assay, 72 h; read-out: IC50, growth of tumor cell line
# [15] = system: 5-FU-resistant human hepatocellular carcinoma cell line BEL-7402/5-Fu; test: MTT cell growth inhibition, BEL-7402/5-Fu; assay type: cell-based; conditions: MTT assay, 72 h, read-out: IC50, growth of tumor cell line
# [16] = system: doxorubicin-resistant hepatocellular carcinoma cell line HepG2/ADM; test: MTT cell growth inhibition, HepG2/ADM; assay type: cell-based, human; conditions: MTT assay, 72 h, read-out: IC50, growth of tumor cell line
# From the text: as §3, §4
# [17] = system: doxorubicin-resistant human breast cancer cell lines MCF-7/ADR; test: MTT cell growth inhibition, MCF-7/ADR; assay type: cell-based; conditions: MTT assay, 72 h, read-out: IC50, growth of tumor cell line
# From the text: as §3, §4
# Kunming mice = test: Acute toxicity test; assay type: in vivo; conditions: injected intraperitoneally
# Experimental: Experimental method: Kunming mice were purchased from Guangdong Medical Experimental Animal Center, weighing 18-22 g, then randomly divided into several groups with 10 mice in each group. Different concentrations of VLB and vinca alkaloid dipeptide derivatives were injected intraperitoneally. Finally, the median lethal dose (LD50) was calculated according to the surviving animals.
# LD50 was measured using the following formula:
# LD50 (mg/kg)=The median lethal dose/body weight
# MDA-MB-231 xenografts = MDA-MB-231 xenografts in nude mice; assay type: in vivo, BALB/nu/nu mice; conditions: MDA-MB-231 xenograft nude mice; for Anti-tumor rate (%) / Body weight (g) Post-dose / Tumor weight: 1 mg/kg i.p. every two days, 8 administrations; for Body weight (g) Pre-dose: before dosing
# Experimental: (§1) Experimental method: The MDA-MB-231 cells at logarithmic phase were digested and washed twice with PBS. Then, 100 μL cells (1×10^7) were inoculated subcutaneously on the backs of female BALB/nu/nu mice. After tumors grew to 70˜100 mm^3, the mice were divided randomly into saline group (control group), vinca alkaloids groups (VLB, CCRB, CCFN, CCXJ) and vinca alkaloid derivatives groups (JJ-CCJ, BX-CCJ, JJ-CCRB, BX-CCRB, JJ-CCFN, BX-CCFN, JJ-CCXJ and BX-CCXJ), with six mice per group. 1 mg/kg drugs were injected intraperitoneally every two days, meanwhile body weight and tumor sizes were measured. Experiment was ended after 8 times of drug administration, then tumor and organs were stripped. Tumor volumes were measured using the following formula: V=½(ab^2), whereas a refers to the longest diameter and b is the shortest diameter.
# HepG2 xenografts = HepG2 xenografts in nude mice; assay type: in vivo; conditions: HepG2 xenograft nude mice; for Anti-tumor rate (%) / Body weight (g) Post-dose / Tumor weight: 1 mg/kg; for Body weight (g) Pre-dose: before dosing
# Experimental: as §1
# (§2) Tumor xenograft models of HepG2, LOVO, K562 and HL-60 cell lines were performed as the method described above.
# LOVO xenografts = LOVO xenografts in nude mice; assay type: in vivo; conditions: LOVO xenograft nude mice; for Anti-tumor rate (%) / Body weight (g) Post-dose / Tumor weight: 1 mg/kg; for Body weight (g) Pre-dose: before dosing
# Experimental: as §1, §2
# K562 xenografts = K562 xenografts in nude mice; assay type: in vivo; conditions: K562 xenograft nude mice; for Anti-tumor rate (%) / Body weight (g) Post-dose / Tumor weight: 1 mg/kg; for Body weight (g) Pre-dose: before dosing
# Experimental: as §1, §2
# HL-60 xenografts = HL-60 xenografts in nude mice; assay type: in vivo; conditions: HL-60 xenograft nude mice; for Anti-tumor rate (%) / Body weight (g) Post-dose / Tumor weight: 1 mg/kg; for Body weight (g) Pre-dose: before dosing
# Experimental: as §1, §2
# [18] = system: human normal liver cells LO2; test: MTT cytotoxicity on normal cells, LO2; conditions: read-out: IC50, cytotoxicity on normal cell line; LO2, MTT assay
# Experimental: (§5) Then, 100 μL of cells (cell concentration was 5×10^5/mL) were seeded into 96 wells plate. After 24 h incubation at 37° C. with 5% CO2, tested compounds were added (the control group without compound) for an additional 72 h incubation. After that, 30 μL of MTT [3-(4,5-Dimethylthiazol-2-yl)-2,5-diphenyltetrazolium bromide] solution (5 mg/mL) was added into each well and incubated for another 4 h at 37° C. and then the formazan crystals were solubilized with 100 μL DMSO. Finally, absorbance of each well was determined at 570 nm by a microplate reader (Thermo).
# (§6) The standard curve was drew with compound concentrations as the abscissa and cell growth inhibition rates as the ordinate. The concentration required to inhibit cell growth by 50% (IC50) was calculated from survival curves.
# (§7) Experimental method: In vitro cytotoxicities of vinca alkaloids, hydrazinolyzed vinca alkaloids and vinca alkaloid dipeptide derivatives on human normal liver cells LO2 and human umbilical vein endothelial cells HUVEC were detected according to the method of Example 2.
# [19] = system: human umbilical vein endothelial cells HUVEC; test: MTT cytotoxicity on normal cells, HUVEC; conditions: read-out: IC50, cytotoxicity on normal cell line; HUVEC, MTT assay
# Experimental: as §5, §6, §7
Structure (SMILES),IC50 [1],IC50 [2],IC50 [3],IC50 [4],IC50 [5],IC50 [6],IC50 [7],IC50 [8],IC50 [9],IC50 [10],IC50 [11],IC50 [12],IC50 [13],IC50 [14],IC50 [15],IC50 [16],LD50 (median lethal dose) (Kunming mice),Anti-tumor rate (%) (MDA-MB-231 xenografts),Body weight (g) Post-dose (MDA-MB-231 xenografts),Tumor weight (MDA-MB-231 xenografts),further results
"CCC1(O)CC2CN(CCc3c([nH]c4ccccc34)C(C(=O)OC)(c3cc4c(cc3OC)N(C=O)C3C(O)(C(=O)NNC(=O)C5CCCN5C(=O)CNC(=O)OCc5ccccc5)C(O)C5(CC)C=CCN6CCC43C65)C2)C1 (centres unmarked) [BX-CCXJ, Z-GP-NHNH-Vincristine]",47.7 ± 2.64 nM,24.9 ± 1.78 nM,40.1 ± 2.09 nM,33.4 ± 2.01 nM,55.3 ± 1.9 nM,73.2 ± 3.66 nM,57.3 ± 3.36 nM,43.2 ± 3.53 nM,88.9 ± 6.84 nM,76.9 ± 4.55 nM,44.9 ± 3.28 nM,54.8 ± 8.41 nM,61.7 ± 6.14 nM,72.8 ± 4.59 nM,326 ± 13.3 nM,135 ± 5.54 nM,10 mg/kg,91.18** %,21.9 ± 2.9 g,0.23 ± 0.09 g,IC50 [17]: 169 ± 5.67 nM; Body weight (g) Pre-dose (MDA-MB-231 xenografts): 19.5 ± 1.4 g; Anti-tumor rate (%) (HepG2 xenografts): 88.63** %; Body weight (g) Post-dose (HepG2 xenografts): 21.9 ± 2.1 g; Tumor weight (HepG2 xenografts): 0.29 ± 0.13 g; Body weight (g) Pre-dose (HepG2 xenografts): 22.2 ± 1.2 g; Anti-tumor rate (%) (LOVO xenografts): 79.45** %; Body weight (g) Post-dose (LOVO xenografts): 24.2 ± 1.7 g; Tumor weight (LOVO xenografts): 0.59 ± 0.33 g; Body weight (g) Pre-dose (LOVO xenografts): 23.8 ± 1.0 g; Anti-tumor rate (%) (K562 xenografts): 75.00** %; Body weight (g) Post-dose (K562 xenografts): 22.5 ± 1.1 g; Tumor weight (K562 xenografts): 0.42 ± 0.14 g; Body weight (g) Pre-dose (K562 xenografts): 21.2 ± 0.9 g; Anti-tumor rate (%) (HL-60 xenografts): 72.12** %; Body weight (g) Post-dose (HL-60 xenografts): 19.7 ± 0.9 g; Tumor weight (HL-60 xenografts): 0.58 ± 0.17 g; Body weight (g) Pre-dose (HL-60 xenografts): 19.3 ± 1.1 g; IC50 [18]: 101 ± 9.02 nM; IC50 [19]: 176 ± 5.51 nM
"CCC12C=CCN3CCC4(c5cc(C6(C(=O)OC)CC7CC(C(C)(F)F)CN(Cc8c6[nH]c6ccccc86)C7)c(OC)cc5N(C)C4C(O)(C(=O)NNC(=O)C4CCCN4C(=O)CNC(=O)OCc4ccccc4)C1O)C32 (centres unmarked) [BX-CCFN, Z-GP-NHNH-Vinflunine]",335 ± 7.31 nM,320 ± 8.51 nM,309 ± 5.78 nM,299 ± 7.64 nM,430 ± 10.1 nM,606 ± 11.5 nM,614 ± 9.29 nM,430 ± 10.4 nM,317 ± 31.3 nM,289 ± 28.8 nM,229 ± 6.6 nM,528 ± 34.8 nM,459 ± 13.5 nM,726 ± 98.2 nM,390 ± 15.7 nM,604 ± 17.9 nM,15 mg/kg,88.13** %,20.6 ± 1.6 g,0.31 ± 0.11 g,IC50 [17]: 908 ± 20.2 nM; Body weight (g) Pre-dose (MDA-MB-231 xenografts): 20.2 ± 0.7 g; Anti-tumor rate (%) (HepG2 xenografts): 88.24** %; Body weight (g) Post-dose (HepG2 xenografts): 22.1 ± 1.2 g; Tumor weight (HepG2 xenografts): 0.30 ± 0.17 g; Body weight (g) Pre-dose (HepG2 xenografts): 21.9 ± 1.3 g; Anti-tumor rate (%) (LOVO xenografts): 83.63** %; Body weight (g) Post-dose (LOVO xenografts): 24.5 ± 1.5 g; Tumor weight (LOVO xenografts): 0.47 ± 0.31 g; Body weight (g) Pre-dose (LOVO xenografts): 23.6 ± 1.3 g; Anti-tumor rate (%) (K562 xenografts): 66.08** %; Body weight (g) Post-dose (K562 xenografts): 23.0 ± 0.8 g; Tumor weight (K562 xenografts): 0.57 ± 0.13 g; Body weight (g) Pre-dose (K562 xenografts): 22.9 ± 1.3 g; Anti-tumor rate (%) (HL-60 xenografts): 70.68** %; Body weight (g) Post-dose (HL-60 xenografts): 18.6 ± 1.4 g; Tumor weight (HL-60 xenografts): 0.61 ± 0.35 g; Body weight (g) Pre-dose (HL-60 xenografts): 18.7 ± 1.4 g; IC50 [18]: 301 ± 14.3 nM; IC50 [19]: 270 ± 7.7 nM
"CCC1(O)CC2CN(CCc3c([nH]c4ccccc34)C(C(=O)OC)(c3cc4c(cc3OC)N(C)C3C(O)(C(=O)NNC(=O)C5CCCN5C(=O)CNC(=O)OCc5ccccc5)C(O)C5(CC)C=CCN6CCC43C65)C2)C1 (centres unmarked) [BX-CCJ, Z-GP-NHNH-Vinblastine]",62.1 ± 3.87 nM,44.8 ± 8.15 nM,52.7 ± 3.01 nM,46.8 ± 1.17 nM,56.8 ± 3.08 nM,108 ± 4.23 nM,64.2 ± 4.57 nM,103 ± 8.87 nM,71.1 ± 1.97 nM,57.3 ± 2.07 nM,11.7 ± 3.04 nM,49.5 ± 4.53 nM,59.8 ± 6.42 nM,85.5 ± 9.57 nM,179 ± 8.87 nM,146 ± 5.47 nM,10 mg/kg,92.34** %,21.2 ± 2.1 g,0.20 ± 0.12 g,Body weight (g) Pre-dose (MDA-MB-231 xenografts): 19.8 ± 1.0 g; Anti-tumor rate (%) (HepG2 xenografts): 86.67** %; Body weight (g) Post-dose (HepG2 xenografts): 22.1 ± 1.3 g; Tumor weight (HepG2 xenografts): 0.34 ± 0.21 g; Body weight (g) Pre-dose (HepG2 xenografts): 22.0 ± 1.7 g; Anti-tumor rate (%) (LOVO xenografts): 85.02** %; Body weight (g) Post-dose (LOVO xenografts): 24.4 ± 1.6 g; Tumor weight (LOVO xenografts): 0.43 ± 0.38 g; Body weight (g) Pre-dose (LOVO xenografts): 23.8 ± 1.9 g; Anti-tumor rate (%) (K562 xenografts): 76.79** %; Body weight (g) Post-dose (K562 xenografts): 23.1 ± 1.4 g; Tumor weight (K562 xenografts): 0.39 ± 0.27 g; Body weight (g) Pre-dose (K562 xenografts): 22.3 ± 1.0 g; Anti-tumor rate (%) (HL-60 xenografts): 81.29** %; Body weight (g) Post-dose (HL-60 xenografts): 20.1 ± 1.0 g; Tumor weight (HL-60 xenografts): 0.41 ± 0.19 g; Body weight (g) Pre-dose (HL-60 xenografts): 18.8 ± 1.1 g; IC50 [18]: 96.3 ± 1.11 nM; IC50 [19]: 129 ± 1.34 nM
